Laboratory results from patent publication US20150307938A1, “METHOD TO IDENTIFY A NOVEL CLASS OF IMMUNOLOGIC ADJUVANTS” (Lancell, L.L.C., priority 2011, published 2015).
Several values for one entry are separate records, joined by “and”; a condition that tells them apart may be missing. Equal entries are not always repeated.

Test system: skin
Assay: Affymetrix microarray of skin, DBP-4 hr and analogs vs. untreated; gene selection by log-2 fold change, Wilcoxon, Kendall tau (Tables 8, 9)
Assay type: in vivo, mouse
Details: mouse, in vivo

CCCCOC(=O)c1ccccc1C(=O)OCCCC [DBP, dibutylphthalate] was tested, and the “AY026312 NM_133359_at ≧2-Fold change” value was “No”, the “Abcc3 (NM_029600_at) ≧2-Fold change” value was “Yes” and the “Acot5 (NM_145444_at) ≧2-Fold change” value was “Yes”. The “Actn2 NM_033268_at ≧2-Fold change” value was “No”, the “Adamts4 (NM_172845_at) ≧2-Fold change” value was “Yes” and the “Akap12 (NM_031185_at) ≧2-Fold change” value was “Yes”. For the same compound, the “Akr1c14 NM_134072_at ≧2-Fold change” value was “No”, the “Aldh7a1 NM_001127338_at ≧2-Fold change” value was “No” and the “Angptl4 (NM_020581_at) ≧2-Fold change” value was “Yes”. For the same compound, the “Aox4 NM_023631_at ≧2-Fold change” value was “No”, the “Arc (NM_018790_at) ≧2-Fold change” value was “Yes” and the “Arid5a (NM_145996_at) ≧2-Fold change” value was “Yes”. For the same compound, the “Arid5a (NR_033310_at) ≧2-Fold change” value was “Yes”, the “Asb5 NM_029569_at ≧2-Fold change” value was “No” and the “Atp2a2 NM_001110140_at ≧2-Fold change” value was “No”. The “Atp13a3 NM_001128094_at ≧2-Fold change” value was “No”, the “Atp13a3 NM_001128096_at ≧2-Fold change” value was “No” and the “Bcar3 (NM_013867_at) ≧2-Fold change” value was “Yes”. The “Bcl3 (NM_033601_at) ≧2-Fold change” value was “Yes”, the “Bcr NM_001081412_at ≧2-Fold change” value was “No” and the “Bhlhe40 (NM_011498_at) ≧2-Fold change” value was “Yes”. The “Calcb (NM_054084_at) ≧2-Fold change” value was “Yes”, the “Camk2g NM_001039138_at ≧2-Fold change” value was “No” and the “Camk2g NM_001039139_at ≧2-Fold change” value was “No”. For the same compound, the “Ccl1 (NM_011329_at) ≧2-Fold change” value was “Yes”, the “Ccl2 (NM_011333_at) ≧2-Fold change” value was “Yes” and the “Ccl3 (NM_011337_at) ≧2-Fold change” value was “Yes”. The “Ccl7 (NM_013654_at) ≧2-Fold change” value was “Yes”, the “Ccl8 NM_021443_at ≧2-Fold change” value was “No” and the “Ccl9 (NM_011338_at) ≧2-Fold change” value was “Yes”. For the same compound, the “Ccl12 (NM_011331_at) ≧2-Fold change” value was “Yes”, the “Ccl17 (NM_011332_at) ≧2-Fold change” value was “Yes” and the “Ccl20 (NM_016960_at) ≧2-Fold change” value was “Yes”. The “Ccl24 NM_019577_at ≧2-Fold change” value was “No”, the “Cd86 (NM_019388_at) ≧2-Fold change” value was “Yes” and the “Cd207 (NM_144943_at) ≧2-Fold change” value was “Yes”. The “Cd209d NM_130904_at ≧2-Fold change” value was “No”, the “Ckmt2 NM_198415_at ≧2-Fold change” value was “No” and the “Cldn8 NM_018778_at ≧2-Fold change” value was “No”. For the same compound, the “Clec4e (NM_019948_at) ≧2-Fold change” value was “Yes”, the “Clec4n NM_020001_at ≧2-Fold change” value was “No” and the “Clec7a (NM_020008_at) ≧2-Fold change” value was “Yes”. The “Clec4d (NM_010819_at) ≧2-Fold change” value was “Yes”, the “Clic4 (NM_013885_at) ≧2-Fold change” value was “Yes” and the “Cmya5 NM_023821_at ≧2-Fold change” value was “No”. For the same compound, the “Comp NM_016685_at ≧2-Fold change” value was “No”, the “Corin NM_016869_at ≧2-Fold change” value was “No” and the “Crem (NM_013498_at) ≧2-Fold change” value was “Yes”. For the same compound, the “Crispld1 NM_031402_at ≧2-Fold change” value was “No”, the “Cxcl10 NM_021274_at ≧2-Fold change” value was “No” and the “Cxcl16 (NM_023158_at) ≧2-Fold change” value was “Yes”. The “Cxcr6 NM_030712_at ≧2-Fold change” value was “No”, the “Cyr61 (NM_010516_at) ≧2-Fold change” value was “Yes” and the “Cyth1 NM_001112699_at ≧2-Fold change” value was “No”. For the same compound, the “Cyth1 NM_001112700_at ≧2-Fold change” value was “No”, the “Cytip (NM_139200_at) ≧2-Fold change” value was “Yes” and the “DBP LogFold-Change Versus-Untreated: 1600029D21Rik” value was 1.52. The “DBP LogFold-Change Versus-Untreated: 1810055G02Rik” value was 0.89, the “DBP LogFold-Change Versus-Untreated: 5730408K05Rik” value was 0.91 and the “DBP LogFold-Change Versus-Untreated: 1810011010Rik” value was 1.53. For the same compound, the “DBP LogFold-Change Versus-Untreated: Abcc3” value was 1.09, the “DBP LogFold-Change Versus-Untreated: Adam8” value was 1.94 and the “DBP LogFold-Change Versus-Untreated: Adamts4” value was 1.41. The “DBP LogFold-Change Versus-Untreated: Angptl4” value was 2.61, the “DBP LogFold-Change Versus-Untreated: Aqp3” value was 0.89 and the “DBP LogFold-Change Versus-Untreated: Arc” value was 1.90. For the same compound, the “DBP LogFold-Change Versus-Untreated: Arid5a” value was 1.49, the “DBP LogFold-Change Versus-Untreated: Bcar3” value was 1.08 and the “DBP LogFold-Change Versus-Untreated: Bcl3” value was 2.56. The “DBP LogFold-Change Versus-Untreated: Bhlhe40” value was 1.26, the “DBP LogFold-Change Versus-Untreated: Birc3” value was 1.02 and the “DBP LogFold-Change Versus-Untreated: Btg2” value was 1.56. For the same compound, the “DBP LogFold-Change Versus-Untreated: Ccl2” value was 3.23, the “DBP LogFold-Change Versus-Untreated: Ccl7” value was 3.11 and the “DBP LogFold-Change Versus-Untreated: Ccl12” value was 3.10. The “DBP LogFold-Change Versus-Untreated: Ccl20” value was 5.93, the “DBP LogFold-Change Versus-Untreated: Ccrn4l” value was 1.75 and the “DBP LogFold-Change Versus-Untreated: Cd44” value was 1.31. The “DBP LogFold-Change Versus-Untreated: Cd86” value was 1.73, the “DBP LogFold-Change Versus-Untreated: Cd207” value was 1.42 and the “DBP LogFold-Change Versus-Untreated: Cebpd” value was 1.58. For the same compound, the “DBP LogFold-Change Versus-Untreated: Ch25h” value was 1.91, the “DBP LogFold-Change Versus-Untreated: Cirh1a” value was 0.79 and the “DBP LogFold-Change Versus-Untreated: Cish” value was 1.12. The “DBP LogFold-Change Versus-Untreated: Clec7a” value was 2.09, the “DBP LogFold-Change Versus-Untreated: Clic4” value was 1.12 and the “DBP LogFold-Change Versus-Untreated: Coro2a” value was 0.88. The “DBP LogFold-Change Versus-Untreated: Crem” value was 1.29 and 1.23 and the “DBP LogFold-Change Versus-Untreated: Csf2rb” value was 1.11.
